Reference: patent publication US20100222365A1, “SUBSTITUTED TRIAZOLE DERIVIATIVES AS OXYTOCIN ANTAGONISTS” (Pfizer Inc, priority 2005, published 2010)

Target: T1, Oxytocin receptor (CHO-OTR/NFAT-β-Lactamase cells) (Homo sapiens, UniProt P30559)
T1 construct: expressed in transfected cells; host or cells: CHO-OTR cell line, further transfected with the NFAT-β-lactamase reporter construct
T1 sequence (P30559 1-389): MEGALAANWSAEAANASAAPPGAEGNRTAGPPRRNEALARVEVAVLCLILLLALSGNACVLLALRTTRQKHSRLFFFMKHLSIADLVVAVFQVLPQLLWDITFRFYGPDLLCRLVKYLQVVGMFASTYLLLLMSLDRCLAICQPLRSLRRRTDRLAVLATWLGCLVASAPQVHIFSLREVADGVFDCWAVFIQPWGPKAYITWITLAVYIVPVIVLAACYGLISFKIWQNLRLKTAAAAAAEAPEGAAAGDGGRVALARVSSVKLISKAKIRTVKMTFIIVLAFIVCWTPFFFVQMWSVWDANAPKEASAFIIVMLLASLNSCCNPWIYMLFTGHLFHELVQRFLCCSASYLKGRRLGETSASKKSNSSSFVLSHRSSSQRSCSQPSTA
Assay: Oxytocin Receptor Beta-lactamase Assay
Assay type: cell-based
Conditions: oxytocin stimulation 4 hours, read-out: Oxytocin antagonist activity, expressed as a Ki value
Description: A suitable assay for determining the Oxytocin antagonist activity of a compound is detailed herein below.
Oxytocin Receptor Beta-lactamase Assay:
Cell Culture: Cells used are CHO-OTR/NFAT-β-Lactamase. The NFAT-β-lactamase expression construct was transfected into the CHO-OTR cell line and clonal populations were isolated via fluorescence activated cell sorting (FAGS). An appropriate clone was selected to develop the assay.
Culturing cells—CHO-OTR-NFAT-βLactamase cells were grown in growth medium. Cells were harvested when they reached 80-90% confluence removing the medium and washing with pre-warmed PBS. […]
Cells grown at 80-90% confluence were harvested and counted. […]
Preparation of 1 ml of 6× Loading Buffer with Enhanced Loading Protocol (this requires scale-up according to number of plates to be screened) • 12 μl of solution A (1 mM CCF4-AM in Dry DMSO) was added to […] of solution B (100 mg/ml Pluronic-F127 in DMSO+0.1% Acetic Acid) and vortexed. • The resulting solution was added to 925 μl of solution C (24% w/w PEG400, 18% TR40 v/v in water). • 75 μl of solution D was added (200 mM probenecid in 200 mM NaOH). • 10 μl of 6× Loading Buffer was added to all wells and incubated for 1.5 hrs-2 hrs at room temperature in the dark. • The plates were read using an UL Analyst, Excitation 405 nm, Emission 450 nm and 530 nm, gain optimal, lagtime 0.40 μs integration, 4 flashes, bottom reading.

Ki: 5.5 nM
SMILES: COc1ccc(-n2c(C)nnc2-c2cnc(Oc3cccc(C)c3C)cn2)cn1 [Example 6]
